Assay results: US20230023092A1, “TREATMENT OF DEPRESSION AND OTHER VARIOUS DISORDERS WITH PSILOCYBIN” (COMPASS […], priority 2019, published 2023)

Test system: healthy subjects
Assay: Five-Dimensional Altered States of Consciousness (5D-ASC) questionnaire
Assay type: in vivo, human
Conditions: for 5D-ASC Disembodiment, Mean difference / 5D-ASC Dread of ego dissolution, Mean difference / 5D-ASC Elementary imagery, Mean difference / 5D-ASC Experience of unity, Mean difference / 5D-ASC Impaired control and cognition, Mean difference / 5D-ASC Insightfulness, Mean difference / 5D-ASC Oceanic boundlessness, Mean difference / 5D-ASC Spiritual experience, Mean difference / 5D-ASC Vigilance reduction, Mean difference / 5D-ASC Visual restructuralisation, Mean difference / 5D-ASC Anxiety, Mean difference / 5D-ASC Audio-visual synaesthesia, Mean difference / 5D-ASC Auditory alteration, Mean difference / 5D-ASC Blissful state, Mean difference / 5D-ASC Changed meaning of percepts, Mean difference / 5D-ASC Complex imagery, Mean difference: Post-Treatment Day 0
Text: In some embodiments, the Five Dimension Altered States of Consciousness questionnaire (5D-ASC) is utilized to evaluate the safety and/or efficacy of psilocybin. […] The 5 dimensions include oceanic boundlessness, anxious ego dissolution, visionary restructuralization, auditory alterations and reduction of vigilance.

[1] = Psilocybin 25 mg, Post-Treatment Day 0, LS mean

Structure (SMILES): CN(C)CCc1c[nH]c2cccc(OP(=O)(O)O)c12 [Psilocybin, psilocybin]
- 5D-ASC Disembodiment, Mean difference (Psilocybin 10 mg-Placebo): 45.8
- 5D-ASC Dread of ego dissolution, Mean difference (Psilocybin 10 mg-Placebo): 20.5
- 5D-ASC Elementary imagery, Mean difference (Psilocybin 10 mg-Placebo): 63.6
- 5D-ASC Experience of unity, Mean difference (Psilocybin 10 mg-Placebo): 47.1
- 5D-ASC Impaired control and cognition, Mean difference (Psilocybin 10 mg-Placebo): 26.2
- 5D-ASC Insightfulness, Mean difference (Psilocybin 10 mg-Placebo): 47.6
- 5D-ASC Oceanic boundlessness, Mean difference (Psilocybin 10 mg-Placebo): 47.7
- 5D-ASC Spiritual experience, Mean difference (Psilocybin 10 mg-Placebo): 44.6
- 5D-ASC Vigilance reduction, Mean difference (Psilocybin 10 mg-Placebo): 20.0
- 5D-ASC Visual restructuralisation, Mean difference (Psilocybin 10 mg-Placebo): 52.6
- 5D-ASC Anxiety, Mean [1]: 32.4
- 5D-ASC Audio-visual synaesthesia, Mean [1]: 75.4
- 5D-ASC Auditory alteration, Mean [1]: 30.7
- 5D-ASC Blissful state, Mean [1]: 61.9
- 5D-ASC Changed meaning of percepts, Mean [1]: 46.1
- 5D-ASC Complex imagery, Mean [1]: 64.9
- 5D-ASC Disembodiment, Mean [1]: 53.8
- 5D-ASC Dread of ego dissolution, Mean [1]: 31.9
- 5D-ASC Elementary imagery, Mean [1]: 76.9
- 5D-ASC Experience of unity, Mean [1]: 60.9
- 5D-ASC Impaired control and cognition, Mean [1]: 32.7
- 5D-ASC Insightfulness, Mean [1]: 64.4
- 5D-ASC Oceanic boundlessness, Mean [1]: 62.9
- 5D-ASC Spiritual experience, Mean [1]: 57.9
- 5D-ASC Vigilance reduction, Mean [1]: 45.7
- 5D-ASC Visual restructuralisation, Mean [1]: 65.2
- 5D-ASC Anxiety, Mean difference (Psilocybin 25 mg-10 mg): 16.7
- 5D-ASC Audio-visual synaesthesia, Mean difference (Psilocybin 25 mg-10 mg): 0.7
- 5D-ASC Auditory alteration, Mean difference (Psilocybin 25 mg-10 mg): 10.5
- 5D-ASC Blissful state, Mean difference (Psilocybin 25 mg-10 mg): 2.8
- 5D-ASC Changed meaning of percepts, Mean difference (Psilocybin 25 mg-10 mg): −0.5
- 5D-ASC Complex imagery, Mean difference (Psilocybin 25 mg-10 mg): 11.9
- 5D-ASC Disembodiment, Mean difference (Psilocybin 25 mg-10 mg): 1.1
- 5D-ASC Dread of ego dissolution, Mean difference (Psilocybin 25 mg-10 mg): 10.1
- 5D-ASC Elementary imagery, Mean difference (Psilocybin 25 mg-10 mg): 0.4
- 5D-ASC Experience of unity, Mean difference (Psilocybin 25 mg-10 mg): 6.5
- 5D-ASC Impaired control and cognition, Mean difference (Psilocybin 25 mg-10 mg): 4.7
- 5D-ASC Insightfulness, Mean difference (Psilocybin 25 mg-10 mg): 10.5
- 5D-ASC Oceanic boundlessness, Mean difference (Psilocybin 25 mg-10 mg): 7.2
- 5D-ASC Spiritual experience, Mean difference (Psilocybin 25 mg-10 mg): 9.2
- 5D-ASC Vigilance reduction, Mean difference (Psilocybin 25 mg-10 mg): 10.3
- 5D-ASC Visual restructuralisation, Mean difference (Psilocybin 25 mg-10 mg): 6.1
- 5D-ASC Anxiety, Mean difference (Psilocybin 25 mg-Placebo): 31.3
- 5D-ASC Audio-visual synaesthesia, Mean difference (Psilocybin 25 mg-Placebo): 67.3
- 5D-ASC Auditory alteration, Mean difference (Psilocybin 25 mg-Placebo): 29.1
- 5D-ASC Blissful state, Mean difference (Psilocybin 25 mg-Placebo): 53.6
- 5D-ASC Changed meaning of percepts, Mean difference (Psilocybin 25 mg-Placebo): 43.9
- 5D-ASC Complex imagery, Mean difference (Psilocybin 25 mg-Placebo): 60.5
- 5D-ASC Disembodiment, Mean difference (Psilocybin 25 mg-Placebo): 46.9
- 5D-ASC Dread of ego dissolution, Mean difference (Psilocybin 25 mg-Placebo): 30.6
- 5D-ASC Elementary imagery, Mean difference (Psilocybin 25 mg-Placebo): 64.0
- 5D-ASC Experience of unity, Mean difference (Psilocybin 25 mg-Placebo): 53.6
- 5D-ASC Impaired control and cognition, Mean difference (Psilocybin 25 mg-Placebo): 30.9
- 5D-ASC Insightfulness, Mean difference (Psilocybin 25 mg-Placebo): 58.2
- 5D-ASC Oceanic boundlessness, Mean difference (Psilocybin 25 mg-Placebo): 54.9
- 5D-ASC Spiritual experience, Mean difference (Psilocybin 25 mg-Placebo): 53.7
- 5D-ASC Vigilance reduction, Mean difference (Psilocybin 25 mg-Placebo): 30.4
- 5D-ASC Visual restructuralisation, Mean difference (Psilocybin 25 mg-Placebo): 58.7
